Publication PMC10709440, “High-throughput ligand profile characterization in novel cell lines expressing seven heterologous insect olfactory receptors for the detection of volatile plant biomarkers” (Scientific Reports, 2023)
Where two headings read alike, the source gives them in different places.

Experiments:
Drosophila OR49b = biological target: T1, Drosophila OR49b (Drosophila melanogaster, UniProt Q9V6H2); experiment: cell-based; conditions: for Average response / OR49b response (VUAA1-normalized) at 1 μM / OR49b response (VUAA1-normalized) at 10 μM / OR49b response (VUAA1-normalized) at 100 μM: OR49b cell line; for Average response: mean of biological replicates; for activation at 1 µM / activation at 10 µM / activation at 100 µM: HEK293
T1 construct: expressed in transfected cells
T1 sequence (Q9V6H2 1-375): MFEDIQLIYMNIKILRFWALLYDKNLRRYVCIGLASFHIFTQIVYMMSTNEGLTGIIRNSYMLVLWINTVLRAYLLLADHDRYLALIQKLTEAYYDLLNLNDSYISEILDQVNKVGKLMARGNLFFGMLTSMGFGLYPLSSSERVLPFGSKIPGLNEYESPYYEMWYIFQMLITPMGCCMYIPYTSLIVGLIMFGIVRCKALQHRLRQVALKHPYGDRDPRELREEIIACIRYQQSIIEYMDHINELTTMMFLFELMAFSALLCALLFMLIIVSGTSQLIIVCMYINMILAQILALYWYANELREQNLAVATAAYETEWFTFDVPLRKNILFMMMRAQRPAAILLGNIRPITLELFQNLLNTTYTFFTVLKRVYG
T1 sequence (Q9VNB5 1-486 partner): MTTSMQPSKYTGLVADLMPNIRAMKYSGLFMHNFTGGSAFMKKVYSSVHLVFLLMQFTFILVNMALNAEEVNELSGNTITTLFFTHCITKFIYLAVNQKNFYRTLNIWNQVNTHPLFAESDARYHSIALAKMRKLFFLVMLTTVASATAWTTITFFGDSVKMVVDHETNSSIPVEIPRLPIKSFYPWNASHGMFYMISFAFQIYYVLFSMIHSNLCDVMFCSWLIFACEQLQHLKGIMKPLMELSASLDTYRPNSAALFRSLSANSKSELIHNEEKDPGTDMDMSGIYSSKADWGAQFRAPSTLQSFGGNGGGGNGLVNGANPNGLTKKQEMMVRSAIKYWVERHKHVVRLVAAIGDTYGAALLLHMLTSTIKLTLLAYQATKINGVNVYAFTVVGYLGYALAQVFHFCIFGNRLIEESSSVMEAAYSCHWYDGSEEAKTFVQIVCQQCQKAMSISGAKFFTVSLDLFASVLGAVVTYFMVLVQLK
How it was run: (§1)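 HEK293 lines stably expressing each Drosophila OR with GCaMP6, doxycycline-induced (1 μg/mL) 48 or 72 h. Fluorescence recorded 5 s baseline then 30 s after VOC injection at pH 7.3; ΔF=(FMAX−F0)/F0, normalized to 50 µM VUAA1 response per line, triplicate wells averaged; concentration series 0.01–100 μM.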

Drosophila OR13a = biological target: T2, Drosophila OR13a (Drosophila melanogaster, UniProt Q9VXL0); experiment: Calcium ion fluorescence (GCaMP6) assay, OR13a stable HEK293 cell line; assay type: cell-based; conditions: for OR13a response (VUAA1-normalized) at 1 μM / OR13a response (VUAA1-normalized) at 10 μM / OR13a response (VUAA1-normalized) at 100 μM: OR13a cell line
T2 construct: expressed in transfected cells
T2 sequence (Q9VXL0 1-418): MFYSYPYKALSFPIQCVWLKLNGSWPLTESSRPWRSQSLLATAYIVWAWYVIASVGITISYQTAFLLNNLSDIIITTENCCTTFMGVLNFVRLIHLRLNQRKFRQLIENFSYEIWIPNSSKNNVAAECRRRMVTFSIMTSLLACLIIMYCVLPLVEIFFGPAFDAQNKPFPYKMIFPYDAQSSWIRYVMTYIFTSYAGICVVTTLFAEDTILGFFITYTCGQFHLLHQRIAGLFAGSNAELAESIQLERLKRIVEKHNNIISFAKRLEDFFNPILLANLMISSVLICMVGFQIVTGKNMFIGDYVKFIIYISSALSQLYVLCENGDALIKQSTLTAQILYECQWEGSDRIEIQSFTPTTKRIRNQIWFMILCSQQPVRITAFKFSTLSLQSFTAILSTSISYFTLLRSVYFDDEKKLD
T2 sequence (Q9VNB5 1-486 partner): T1 sequence (Q9VNB5 1-486 partner)
How it was run: as §1

[1] = 1 μM VOC, 50 μM VUAA1 = 1, responses not exceeding 0.05 considered 0
[2] = 10 μM VOC, 50 μM VUAA1 = 1, responses not exceeding 0.05 considered 0
[3] = 100 μM VOC, 50 μM VUAA1 = 1, responses not exceeding 0.05 considered 0
[4] = concentration 1, normalized fluorescence change, values below 0.05 threshold given as 0
[5] = concentration 10, normalized fluorescence change, values below 0.05 threshold given as 0
[6] = concentration 100, normalized fluorescence change, values below 0.05 threshold given as 0
[7] = 1 μM VOC, 50 μM VUAA1 = 1, read-out: OR49b Average response (VUAA1-normalized)
[8] = 10 μM VOC, 50 μM VUAA1 = 1, read-out: OR49b Average response (VUAA1-normalized)
[9] = 100 μM VOC, 50 μM VUAA1 = 1, read-out: OR49b Average response (VUAA1-normalized)
[10] = VOC concentration 1 μM, read-out: OR49b response (VUAA1-normalized response)
[11] = VOC concentration 10 μM, read-out: OR49b response (VUAA1-normalized response)
[12] = VOC concentration 100 μM, read-out: OR49b response (VUAA1-normalized response)
[13] = HEK293, read-out: OR13a Average response (VUAA1-normalized), 1 μM VOC, 50 μM VUAA1 = 1, responses not exceeding 0.05 considered 0
[14] = HEK293, read-out: OR13a Average response (VUAA1-normalized), 10 μM VOC, 50 μM VUAA1 = 1, responses not exceeding 0.05 considered 0
[15] = HEK293, read-out: OR13a Average response (VUAA1-normalized), 100 μM VOC, 50 μM VUAA1 = 1, responses not exceeding 0.05 considered 0
[16] = HEK293, read-out: OR13a response (VUAA1-normalized response), VOC concentration 1 μM
[17] = HEK293, read-out: OR13a response (VUAA1-normalized response), VOC concentration 10 μM
[18] = HEK293, read-out: OR13a response (VUAA1-normalized response), VOC concentration 100 μM
[19] = ligand concentration 1 (unit not given), threshold 0.05, below shown as 0
[20] = ligand concentration 10 (unit not given), threshold 0.05, below shown as 0
[21] = ligand concentration 100 (unit not given), threshold 0.05, below shown as 0

Row | Molecule | DF norm AVERAGE OR49b (Drosophila OR49b) | Average response (Drosophila OR49b; odorant cc. 1 µM) | Average response (Drosophila OR49b; odorant cc. 10 µM) | Average response (Drosophila OR49b; odorant cc. 100 µM) | OR49b response (VUAA1-normalized response) (Drosophila OR49b; VOC concentration 1 μM) | OR49b response (VUAA1-normalized response) (Drosophila OR49b; VOC concentration 10 μM) | OR49b response (VUAA1-normalized response) (Drosophila OR49b; VOC concentration 100 μM) | OR13a Average response (VUAA1-normalized) (Drosophila OR13a; [1]) | OR13a Average response (VUAA1-normalized) (Drosophila OR13a; [2]) | OR13a Average response (VUAA1-normalized) (Drosophila OR13a; [3]) | OR13a response (VUAA1-normalized response) (Drosophila OR13a; VOC concentration 1 μM) | OR13a response (VUAA1-normalized response) (Drosophila OR13a; VOC concentration 10 μM) | OR13a response (VUAA1-normalized response) (Drosophila OR13a; VOC concentration 100 μM) | DF norm AVERAGE OR13a (Drosophila OR13a; [4]) | DF norm AVERAGE OR13a (Drosophila OR13a; [5]) | DF norm AVERAGE OR13a (Drosophila OR13a; [6]) | activation at 1 µM (Drosophila OR49b; [7]) [%] | activation at 1 µM (Drosophila OR13a; [13]) [%] | activation at 10 µM (Drosophila OR13a; [14]) [%] | activation at 100 µM (Drosophila OR13a; [15]) [%] | other results
1 | (+)-beta-cedrene | 0 | 0.00 | 0.0336 | 0.00 | 0.00 | 0.00 | 0.00 | 0.00 | 0.00 | 0.00 | 0.00 | 0.00 | 0.00 | 0 | 0 | 0 |  |  |  |  | 
2 | Cc1cccc(O)c1 [3-methylphenol] |  | 0.00 | 0.13 | 0.43 |  |  |  |  |  |  |  |  |  | 0 | 0 | 0 | 0 | 0 | 0 | 1.35 | activation at 10 µM (Drosophila OR49b; [8]): 13%; activation at 100 µM (Drosophila OR49b; [9]): 43%; activation at 1 µM (Drosophila OR49b; [10]): 0%; activation at 10 µM (Drosophila OR49b; [11]): 13%; activation at 100 µM (Drosophila OR49b; [12]): 43%; activation at 1 µM (Drosophila OR13a; [16]): 0%; activation at 10 µM (Drosophila OR13a; [17]): 0%; activation at 100 µM (Drosophila OR13a; [18]): 0%
3 | C=C(C)[C@H]1CC=C(C)CC1 [(R)-(+)-limonene] | 0 | 0.00 | 0.00 | 0.0168 | 0.00 | 0.00 | 0.00 | 0.00 | 0.0429 | 0.0285 | 0.00 | 0.00 | 0.00 | 0 | 0 | 0 |  |  |  |  | 
4 | COC(=O)c1ccccc1 [methyl benzoate] |  | 0.13 | 0.00 | 0.05 |  |  |  |  |  |  |  |  |  |  |  |  |  | 0 | 0 | 6 | OR49b response (VUAA1-normalized) at 1 μM (Drosophila OR49b; VOC concentration 1 μM): 0.13; OR49b response (VUAA1-normalized) at 10 μM (Drosophila OR49b; VOC concentration 10 μM): 0.00; OR49b response (VUAA1-normalized) at 100 μM (Drosophila OR49b; VOC concentration 100 μM): 0.00; DF norm AVERAGE OR49b (Drosophila OR49b; [19]): 0.1337; DF norm AVERAGE OR49b (Drosophila OR49b; [20]): 0; DF norm AVERAGE OR49b (Drosophila OR49b; [21]): 0; OR13a response (VUAA1-normalized) at 1 μM (Drosophila OR13a; VOC concentration 1 μM): 0.00; OR13a response (VUAA1-normalized) at 10 μM (Drosophila OR13a; VOC concentration 10 μM): 0.00; OR13a response (VUAA1-normalized) at 100 μM (Drosophila OR13a; VOC concentration 100 μM): 0.06; DF norm AVERAGE OR13a (Drosophila OR13a; [19]): 0; DF norm AVERAGE OR13a (Drosophila OR13a; [20]): 0; DF norm AVERAGE OR13a (Drosophila OR13a; [21]): 0.06097
5 | Cc1cccc(C)c1 [m-xylene] |  | 0.00 | 0.0251 | 0.27 |  |  |  |  |  |  |  |  |  |  |  |  | 0 | 0 | 0 | 4 | activation at 10 µM (Drosophila OR49b; [8]): 3%; activation at 100 µM (Drosophila OR49b; [9]): 27%; OR49b response (VUAA1-normalized) at 1 μM (Drosophila OR49b; VOC concentration 1 μM): 0.00; OR49b response (VUAA1-normalized) at 10 μM (Drosophila OR49b; VOC concentration 10 μM): 0.00; OR49b response (VUAA1-normalized) at 100 μM (Drosophila OR49b; VOC concentration 100 μM): 0.27; DF norm AVERAGE OR49b (Drosophila OR49b; [19]): 0; DF norm AVERAGE OR49b (Drosophila OR49b; [20]): 0; DF norm AVERAGE OR49b (Drosophila OR49b; [21]): 0.2713; OR13a response (VUAA1-normalized) at 1 μM (Drosophila OR13a; VOC concentration 1 μM): 0.00; OR13a response (VUAA1-normalized) at 10 μM (Drosophila OR13a; VOC concentration 10 μM): 0.00; OR13a response (VUAA1-normalized) at 100 μM (Drosophila OR13a; VOC concentration 100 μM): 0.00; DF norm AVERAGE OR13a (Drosophila OR13a; [19]): 0; DF norm AVERAGE OR13a (Drosophila OR13a; [20]): 0; DF norm AVERAGE OR13a (Drosophila OR13a; [21]): 0
6 | CCCCCC(C)=O [2-heptanone] | 0 | 0.00 | 0.00 | 0.02 |  |  |  |  |  |  |  |  |  | 0 | 0 | 0 |  | 0 | 2.36 | 1.75 | activation at 1 µM (Drosophila OR49b; [10]): 0%; activation at 10 µM (Drosophila OR49b; [11]): 0%; activation at 100 µM (Drosophila OR49b; [12]): 0%; activation at 1 µM (Drosophila OR13a; [16]): 0%; activation at 10 µM (Drosophila OR13a; [17]): 0%; activation at 100 µM (Drosophila OR13a; [18]): 0%
